Test results: publication PMC7822874, “Chemoprotective antimalarials identified through quantitative high-throughput screening of Plasmodium blood and liver stage parasites” (Scientific Reports, 2021)
Like-named read-outs stand apart in the source and are kept apart here.

Legend:
in vitro = settings: human
[1] = test system: P. berghei-ANKA-GFP-LucCON liver stage parasites in HepG2-A16-CD81EGFP cells; assay: P. berghei liver stage Pb-Luc assay, Method 1 (UCSD, 1536-well); assay type: cell-based, Plasmodium berghei; settings: for activity at 1 µM / activity at 3 µM: 48 h, average of 2 wells on a 1536 well plate; for Max Resp (signal direction of the dose response): Decrease = decreasing P. berghei viability with dose, Increase = increasing signal, Inactive = no dose response
[2] = test system: luciferase-expressing P. berghei liver stage parasites in HepG2 cells; assay: Inhibition of liver-stage development assay (ILSDA), Method 2 (WRAIR, 96-well); assay type: cell-based, Plasmodium berghei; settings: for AC50: Plasmodium berghei
[3] = test system: Plasmodium falciparum Dd2 asexual blood stage parasites; assay: microbe, parasite or virus in culture; design: species or system Plasmodium falciparum Dd2 in human erythrocytes; single determination (one 11-point concentration-response curve); settings: Plasmodium falciparum, DD2, Erythrocyte, 72 h; read-out: AC50
HepG2-A16-CD81EGFP cells = settings: average of 2 wells
[4] = HepG2-A16-CD81EGFP cells, uninfected
[5] = Plasmodium berghei, 1 uM (compounds provided at 10 mM), column 11, read-out: Pb-Luc (P. berghei liver stage), % of control, lower concentration, first repeat
[6] = Plasmodium berghei, 1 uM (compounds provided at 10 mM), column 12, read-out: Pb-Luc (P. berghei liver stage), % of control, lower concentration, second repeat
[7] = Plasmodium berghei, 3 uM (compounds provided at 10 mM), column 8, read-out: Pb-Luc (P. berghei liver stage), % of control, higher concentration, first repeat
[8] = Plasmodium berghei, 3 uM (compounds provided at 10 mM), column 9, read-out: Pb-Luc (P. berghei liver stage), % of control, higher concentration, second repeat
[9] = Method 2, Decrease = decreasing P. berghei viability with dose, Increase = increasing signal, Inactive = no dose response
[10] = HepG2, Method 2, Hill fit, 50% of maximum activity response, read-out: AC50
[11] = HepG2, Method 2, log10 of molar AC50 from Hill fit, read-out: Log AC50 (converted)
[12] = Plasmodium berghei, Method 1, Hill fit, 50% of maximum activity response, read-out: AC50
[13] = Plasmodium berghei, Method 1, log10 of molar AC50 from Hill fit, read-out: Log AC50 (converted)

Structure (SMILES) | viability at 48 h, 1 µM (in vitro; [4]) [%] | viability at 48 h, 3 µM (in vitro; [4]) [%] | Max Resp (signal direction of the dose response) [2, 9] | AC50 [2, 10] [nM] | AC50 [2, 11] [nM] | AC50 [3] [nM] | also measured
O=C(NC1CC1)c1ccc(CSCc2ccccc2Cl)o1 [MLS001030935-01] | 111 | 100 | Decrease | 200 | 200 |  | activity at 1 µM [1, 5]: 16%; activity at 1 µM [1, 6]: 12%; activity at 3 µM [1, 7]: 1%; activity at 3 µM [1, 8]: 9%
N=c1c2ccccc2nnn1-c1ccc(C(F)(F)F)cc1 [MLS000707013-01] | 91 | 101 | Decrease | 708 | 708 | 3760 | activity at 1 µM [1, 5]: 23%; activity at 1 µM [1, 6]: 19%; activity at 3 µM [1, 7]: 12%; activity at 3 µM [1, 8]: 10%
Cc1ccc(C(=O)Nc2nc(-c3ccccn3)cs2)cc1S(=O)(=O)N1CCOCC1 [MLS002157637-01] | 92 | 55 | Inactive |  |  |  | 
Cc1cc(Nc2ccc(Br)c(C)c2)n2nc(C)nc2n1 [MLS000116638-01] |  |  | Decrease | 794 | 794 | 1330 | activity at 1 µM ([1]; Plasmodium berghei, P. berghei liver stage, 1 µM compound treatment (10 mM stocks), replicate 1, normalized, read-out: PbLuc 1uM growth rep1): 32%; activity at 1 µM ([1]; Plasmodium berghei, P. berghei liver stage, 1 µM compound treatment (10 mM stocks), replicate 2, normalized, read-out: PbLuc 1uM growth rep2): 25%; activity at 3 µM ([1]; Plasmodium berghei, P. berghei liver stage, 3 µM compound treatment (10 mM stocks), replicate 1, normalized, read-out: PbLuc 3uM growth rep1): 9%; activity at 3 µM ([1]; Plasmodium berghei, P. berghei liver stage, 3 µM compound treatment (10 mM stocks), replicate 2, normalized, read-out: PbLuc 3uM growth rep2): 12%; HepG2 1uM growth rep1 (HepG2-A16-CD81EGFP cells; HepG2, 1 µM compound treatment (10 mM stocks), replicate 1, normalized): 91%; HepG2 1uM growth rep2 (HepG2-A16-CD81EGFP cells; HepG2, 1 µM compound treatment (10 mM stocks), replicate 2, normalized): 87%; HepG2 3uM growth rep1 (HepG2-A16-CD81EGFP cells; HepG2, 3 µM compound treatment (10 mM stocks), replicate 1, normalized): 86%; HepG2 3uM growth rep2 (HepG2-A16-CD81EGFP cells; HepG2, 3 µM compound treatment (10 mM stocks), replicate 2, normalized): 89%
O=C(Nc1ccc(N2CCN(c3ncccc3C(F)(F)F)CC2)nc1)c1cccs1 [MLS000862045-01] | 105 | 95 | Decrease | 447 | 447 |  | 
CC(C)(C)C1CCc2[nH]c3ccccc3c(=O)c2C1 (stereo not drawn) [MLS000109039-01] | 89 | 88 | Decrease | 282 | 282 | 1880 | 
CCn1cc(C(=O)O)c(=O)c2cnc(N3CCN(/C(S)=N/c4ccccc4)CC3)nc21 [MLS000777921-01] | 113 | 102 | Decrease | 2000 | 2000 | 3760 | activity at 1 µM [1, 5]: 25%; activity at 1 µM [1, 6]: 24%; activity at 3 µM [1, 7]: 3.25%; activity at 3 µM [1, 8]: 2.6%
Cc1ccc(Nc2nc(NCCO)c3ccccc3n2)cc1C [NCGC00273600-02] | 96 | 82 | Decrease | 562 | 562 |  | 
COc1ccc(C2=Nn3c([n+](C)c4ccccc43)SC2)cc1 [MLS000717833-01] | 83 | 63 | Decrease | 11200 | 11200 |  | 
O=C1c2ccccc2-n2c1nc1ccccc1c2=O [NCGC00160337] |  |  |  |  |  |  | viability (in vitro): 87%; Max Resp (signal direction of the dose response) [2]: Increase
COc1ccc(-n2nc(C)c([C@@H]3C=C[C@@H](NCc4ccc(N(C)C)cc4)C3)c2C)cc1 [NCGC00394616-01] |  |  | Decrease | 2820 | 2820 | 4330 | Max Resp (signal direction of the dose response) ([1]; Method 1): Decrease; AC50 ([1]; Method 1, Hill fit, 50% of maximum activity response, read-out: AC50): 1580 nM; Log AC50 (M) ([1]; Method 1, log10 of molar AC50 from Hill fit): -5.800 M; AC50 [1, 12]: 1410 nM; AC50 [1, 13]: 1410 nM
COc1ccc2nc(C)cc(Nc3ccc(Cl)c(Cl)c3)c2c1 [NCGC00098192-01] |  |  | Decrease | 398 | 398 | 2660 | Max Resp (signal direction of the dose response) ([1]; Method 1): Inactive
COc1ccc2nc(C[C@@H]3C[C@@H](C(C)C)[C@H](CNCc4ccccc4O)C=C3C)[nH]c2n1 [NCGC00391280-01] |  |  | Inactive |  |  | 243 | AC50 [1, 12]: 1580 nM; AC50 [1, 13]: 1580 nM
COc1cc(/C=C(\C#N)c2nc3ccccc3[nH]2)ccc1OCc1ccc(F)cc1 [NCGC00102606-01] |  |  | Decrease | 794 | 794 | 5310 | Max Resp (signal direction of the dose response) ([1]; Method 1): Decrease; AC50 [1, 12]: 1410 nM; AC50 [1, 13]: 1410 nM
Cc1ccc(CSCc2ccc(C(=O)NC3CC3)o2)cc1 [MLS001031023-01] | 93 | 88 | Decrease | 224 | 224 | 2660 | 
N=c1c2c(n(Cc3ccccc3)c3c1CCC3)CCC2 [MLS000080128-01] | 98 | 74 | Inactive |  |  | 4220 | 
Cc1ccc2c(c1)[nH]c1c(N3CCN(Cc4ccccc4)CC3)ncnc12 [MLS000041320-01] | 82 | 88 | Inactive |  |  |  | activity at 1 µM [1, 5]: 23%; activity at 1 µM [1, 6]: 17%; activity at 3 µM [1, 7]: 5.3%; activity at 3 µM [1, 8]: 4%
CCOC(=O)c1[nH]c(C)c(CCC(=O)N2CCN(c3cc(Cl)ccc3C)CC2)c1C [NCGC00134588-01] |  |  | Decrease | 708 | 708 | 1190 | Max Resp (signal direction of the dose response) ([1]; Method 1): Inactive
Cc1ccc(-c2nn3c(=O)c4c([nH]c3c2C)CCCC4)cc1 [MLS000029798-01] |  |  | Decrease | 282 | 282 | 2990 | activity at 1 µM [1, 5]: 15%; activity at 1 µM [1, 6]: 11%; activity at 3 µM [1, 7]: 6.61%; activity at 3 µM [1, 8]: 8%
O=C(CCc1ccccc1)NC(c1cccs1)c1cc(Cl)c2cccnc2c1O (stereo not drawn) [MLS000703748-01] | 113 | 51 | Inactive |  |  |  | 
CCOC(=O)c1c[nH]c2c3c(ccc2c1=O)CCCC3 [MLS000085191-01] | 98 | 106 | Increase |  |  |  | 
O=C(Nc1ccc2c(N3CCCCC3)ncnc2c1)c1cc(F)cc(F)c1 [NCGC00425525-01] |  |  |  |  |  | 1880 | AC50 [1, 12]: 1410 nM; AC50 [1, 13]: 1410 nM; Activity direction (Decrease / Inactive) ([2]; P. berghei liver stage, Method 2, dose response): Decrease; AC50 ([2]; HepG2, P. berghei liver stage, Method 2, dose response, read-out: AC50): 398 nM; AC50 ([2]; HepG2, P. berghei liver stage, Method 2, dose response, read-out: Log AC50 (converted)): 398 nM
COc1ccc(-c2ccc3ncc(Nc4ccncc4)n3n2)cc1OC [NCGC00412536-01] |  |  | Inactive |  |  | 4850 | AC50 [1, 12]: 2240 nM; AC50 [1, 13]: 2240 nM
c1ccc(CNc2nc(NCc3ccccc3)c3ccccc3n2)cc1 [NCGC00347066-01] | 83 | 72 | Inactive |  |  |  | 
Cc1ccc(C(=O)Nc2nc(-c3ccccn3)cs2)cc1[S+](=O)([O-])N1CCOCC1.O=C(O)C(F)(F)F [NCGC00345210-01] | 73 | 31 | Inactive |  |  |  | 
CCCCN(CC)CCNC(=O)c1cc2c(-c3ccc(Cl)cc3)nn(C)c2s1 [NCGC00108995] |  |  | Inactive |  |  |  | viability at 66 h (in vitro; [4]): 102%
CCC(CC)c1cc([C@H]2CN3CC[C@H]2C[C@@H]3CNC(=O)Cc2cccs2)nc(-c2ccncc2)n1 [NCGC00400345-01] |  |  | Decrease | 251 | 251 | 2990 | Max Resp (signal direction of the dose response) ([1]; Method 1): Decrease; AC50 [1, 12]: 5620 nM; AC50 [1, 13]: 5620 nM
